For the test, the target named is PAK4 (Homo sapiens, UniProt O96013). Briefly: radiometric [γ-33P]-ATP kinase assay (Eurofins KinaseProfiler), myelin basic protein substrate. It counts as biochemical.

pIC50: −log10 of the molar value. Where two headings read alike, the source gives them in different places.

Sequence of PAK4 (O96013 whole entry): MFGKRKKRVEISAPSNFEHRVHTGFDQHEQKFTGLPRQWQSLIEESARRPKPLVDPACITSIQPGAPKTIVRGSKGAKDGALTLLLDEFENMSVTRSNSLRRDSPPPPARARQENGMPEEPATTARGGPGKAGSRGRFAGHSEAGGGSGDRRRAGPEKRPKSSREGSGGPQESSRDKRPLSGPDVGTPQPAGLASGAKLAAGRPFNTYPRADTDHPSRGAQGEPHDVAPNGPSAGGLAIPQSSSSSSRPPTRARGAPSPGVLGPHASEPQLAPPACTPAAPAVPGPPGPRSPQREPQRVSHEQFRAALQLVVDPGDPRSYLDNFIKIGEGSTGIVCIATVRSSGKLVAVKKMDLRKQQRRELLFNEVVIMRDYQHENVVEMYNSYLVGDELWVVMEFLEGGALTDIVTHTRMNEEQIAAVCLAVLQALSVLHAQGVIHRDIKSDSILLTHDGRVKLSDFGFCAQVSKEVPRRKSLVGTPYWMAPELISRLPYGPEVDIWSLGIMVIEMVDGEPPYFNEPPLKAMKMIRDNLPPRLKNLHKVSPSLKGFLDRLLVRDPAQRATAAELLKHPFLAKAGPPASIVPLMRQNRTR

Take `CC(C)c1nn(C)cc1-c1nc2cc(Br)cnc2[nH]1` [compound 1, 6-bromo-2-(3-isopropyl-1-methyl-1H-pyrazol-4-yl)-3H-imidazo[4,5-b]pyridine]: the pIC50 (read-out: 1) is 5.29.

`CC(C)c1nn(C)cc1-c1nc2cc(Cl)cnc2[nH]1` [compound 2, 6-chloro-2-(3-isopropyl-1-methyl-1H-pyrazol-4-yl)-3H-imidazo[4,5-b]pyridine]: for the setting “read-out: 2”, the pIC50 is 5.07.

The values are drawn from article PMC8953563, “A Study on the Effect of the Substituent against PAK4 Inhibition Using In Silico Methods” (International Journal of Molecular Sciences, 2022).
